In the supplement of paper PMC10307832:

Legend:
Test in all cases: relative viability (nuclei count vs DMSO), 5 days (fraction); higher = more cells survive
[1] = compound: C1=CC=C2C(=C1)N=C(S2)C(C#N)C3=NC(=NC=C3)NCCC4=CN=CC=C4 + COc1cc2c(Oc3ccc(NC(=O)C4(C(=O)Nc5ccc(F)cc5)CC4)cc3F)ccnc2cc1OCCCN1CCOCC1 [Foretinib] (partner 0.25 µM)
In short: (§1)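 Lung cancer cell lines, seeded in 1536-well plates, were treated the following day by pin tool with a single drug or with five library-drug doses (not always all listed) in √10 steps on top of a fixed anchor-drug dose. Cells were fixed and nuclei stained in one step after 5 days, and nuclei were counted. Relative viability is the nuclei count for treated wells divided by that for vehicle wells, reported as medians of duplicate plates.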

[2] = compound: C#Cc1cccc(Nc2ncnc3cc(OC)c(OCCCCCCC(=O)NO)cc23)c1 [CUDC-101] + Cc1nc(NC(=O)N2CCC[C@H]2C(N)=O)sc1-c1ccnc(C(C)(C)C(F)(F)F)c1 [Alpelisib] (partner 2 µM)
In short: as §1

[3] = compound: COc1cc2/c(=N/c3ccc(Br)cc3F)nc[nH]c2cc1OCC1CCN(C)CC1 [Vandetanib] + Nc1ncn([C@H]2C[C@H](O)[C@@H](CO)O2)c(=O)n1 [Decitabine] (partner 2 µM)
In short: as §1

[4] = compound: C#Cc1cccc(Nc2ncnc3cc(OC)c(OCCCCCCC(=O)NO)cc23)c1 [CUDC-101] + Cc1cc(Nc2cc(N3CCN(C)CC3)nc(Sc3ccc(NC(=O)C4CC4)cc3)n2)n[nH]1 [Tozasertib] (partner 0.1 µM)
In short: as §1

UMC-11
relative viability ([1]; first compound 0.005 µM): 0.908
relative viability ([1]; first compound 0.01581 µM): 0.993
relative viability ([1]; first compound 0.05 µM): 0.999
relative viability ([1]; first compound 0.1581 µM): 1.01
relative viability ([1]; first compound 0.5 µM): 1.05
relative viability ([2]; first compound 0.01 µM): 1.24
relative viability ([2]; first compound 0.03162 µM): 0.902
relative viability ([2]; first compound 0.1 µM): 0.779
relative viability ([2]; first compound 0.3162 µM): 0.395
relative viability ([2]; first compound 1 µM): 0.123
relative viability ([3]; first compound 0.02 µM): 0.595
relative viability ([3]; first compound 0.06325 µM): 0.553
relative viability ([3]; first compound 0.2 µM): 0.665
relative viability ([3]; first compound 0.6325 µM): 0.528
relative viability ([3]; first compound 2 µM): 0.614
relative viability ([4]; first compound 0.01 µM): 0.193
relative viability ([4]; first compound 0.03162 µM): 0.176
relative viability ([4]; first compound 0.1 µM): 0.193
relative viability ([4]; first compound 0.3162 µM): 0.155
relative viability ([4]; first compound 1 µM): 0.133
